Source: article PMC7070682, “Alpha-Glucosidase- and Lipase-Inhibitory Phenalenones from a New Species of Pseudolophiostoma Originating from Thailand” (Molecules, 2020)
In brackets after ≈: the same amount, converted by molar mass.

How the values were obtained:
[1] = target: α-glucosidase; assay: α-Glucosidase assay (p-NPG substrate); format: biochemical
Experimental: α-Glucosidase assay. The substrates p-nitrophenyl α-glucopyranoside (p-NPG) and α-glucosidase were purchased from Sigma (St. Louis, USA). […] The standard assay protocol established by the Enzyme Inhibition Laboratory was adopted with minor modifications. First, 0.85 units/mL enzyme and 0.7mM of substrate were used for the initial screening of the fungal extracts, and 100mM sodium phosphate buffer containing 50 mM NaCl was prepared in deionized water (pH 6.8). The change in the absorbance was monitored initially before incubation and 30 min after the addition of p-NPG substrate. Percentage inhibition of enzyme by various test compounds was calculated using the formula: % inhibition= (ABS of Blank −ABS of Sample)/ABS of Blank× 100

[2] = target: T1, porcine lipase (Sus scrofa, UniProt P00591); assay: Pancreatic lipase assay (p-nitrophenyl butyrate hydrolysis); format: biochemical; conditions: for IC50: p-nitrophenyl butyrate substrate
T1 sequence (P00591 1-450): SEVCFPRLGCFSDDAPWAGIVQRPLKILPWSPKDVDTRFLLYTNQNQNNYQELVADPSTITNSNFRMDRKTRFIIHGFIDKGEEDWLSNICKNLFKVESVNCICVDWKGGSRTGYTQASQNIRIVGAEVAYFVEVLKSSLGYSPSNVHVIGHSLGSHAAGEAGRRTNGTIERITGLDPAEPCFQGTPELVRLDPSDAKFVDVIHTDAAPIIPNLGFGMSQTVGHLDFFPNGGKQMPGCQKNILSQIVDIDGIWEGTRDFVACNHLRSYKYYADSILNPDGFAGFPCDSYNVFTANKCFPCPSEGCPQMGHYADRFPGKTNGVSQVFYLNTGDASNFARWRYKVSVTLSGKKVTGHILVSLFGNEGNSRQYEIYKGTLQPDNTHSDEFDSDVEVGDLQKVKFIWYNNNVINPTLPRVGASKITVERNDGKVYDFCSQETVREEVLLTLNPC
Experimental: Pancreatic Lipase Assay. […] Thirty five microliters of each test compound in DMSO, 15 µL of pancreatic lipase enzyme (1 mg/mL buffer), and 45 µL Tris-HCl buffer (2.5 mmol Tris, pH = 7.4 and 2.5 mmol NaCl) were mixed in a 96 well microtiter plate and incubated at 25 °C for 15 min. The enzymatic hydrolysis was started upon the addition of 15 µL p-nitrophenyl butyrate (p-NPB). The number of p-nitrophenolate ions generated by the reaction was monitored using microplate reader, measured before incubation and 30 min after the addition of the substrate with corresponding change in absorbance at 405 nm.

[3] = test system: mouse fibroblast (L929) cells; assay: Cytotoxicity assessment vs. L929; format: cell-based
Experimental: (§1) To verify the predicted toxicity of compounds 1–3, a cytotoxicity assessment (Table 4) was performed against mouse fibroblast (L929) and HeLa (KB3.1) cells, as previously reported.
(§2) The cytotoxic effects of the compounds were evaluated using a standard procedure.

[4] = test system: HeLa (KB3.1) cells; assay: Cytotoxicity assessment vs. KB3.1; format: cell-based; conditions: Homo sapiens, KB 3-1
Experimental: as §1, §2

[5] = parameters: method as in PMID 21923104; conditions: previously shown; cited from earlier work

SMILES	IC50 [1]	IC50 [2]	IC50 [3]	IC50 [4]	times more potent than orlistat (lipase inhibition) ([2]; relative to positive control orlistat)	antimicrobial activities [5]
Cc1cc(O)c2c3c(c(O)c4c(c13)O[C@@H](C)C4(C)C)C(=O)C(=O)O2 [Compound 1, scleroderolide]	48.7 µM	3.4 µM	15 µg/mL (≈ 45.7 µM)	21 µg/mL (≈ 64 µM)		
Cc1cc(O)c2c3c(c(O)c4c(c13)O[C@@H](C)C4(C)C)C(=O)C2=O [Compound 2, sclerodione]	120 µM	1 µM	27 µg/mL (≈ 86.4 µM)	18 µg/mL (≈ 57.6 µM)	9 times	moderate
Cc1cc(O)cc2c1C1=C(C(=O)C2=O)C(C)(C)[C@H](C)O1 [Compound 3, trypethelone]	> 100 µM	> 100 µM	2.7 µg/mL (≈ 9.92 µM)	4.2 µg/mL (≈ 15.4 µM)		
C/C(=C\c1csc(C)n1)[C@@H]1C[C@@H]2O[C@]2(C)CCC[C@H](C)[C@H](O)[C@@H](C)C(=O)C(C)(C)[C@@H](O)CC(=O)O1 [Epothilone B, reference compound]			0.0009 µg/mL (≈ 0.00177 µM)	4e-05 µg/mL (≈ 7.88e-05 µM)		
